Literature values, collected in patent US6410601B1, “Histochrome and its therapeutic use in acute myocardial infarction and ischemic heart disease” (priority 1998, dated 2002).

Tested on: patients with acute myocardial infarction
Conditions: 10 mg/kg intravenously before thrombolytic reperfusion

## CCc1nc(C)ccc1O [Emoxipin]
26 patients, control group 39.2%
  reduction of the size of the asynergic zone in the myocardium: 59.5%
Control 28.1%
  frequency of myocardial arrhythmias: 13.9%
Monotherapy 309%
  lipid peroxidation in terms of malonic dialdehyde concentration: 60%
